Active and inactive are the calls of the source.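 The calls were made as follows: active = 40% activation versus positive control reached by fitted dose-response curve at or below highest valid tested dose; inconclusive = poor fit quality, or flat fit with activation between 30% and 70%; inactive = the rest.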
Test: Xi-linked GFP reactivating small molecules – imaging, 68-5-11 mouse fibroblasts, cherry-pick, dose response (AID 743394);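 also: sensitizer 5-aza-dC present in the wells at 0.5 mM final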
Conditions: 68-5-11 mouse fibroblast XiGFP reporter, % GFP-positive imaging, 3 d, at 19.5 µM (top of the series)
[1] = cells co-treated with 5-aza-dC sensitizer, scaled: neutral wells 0, ellipticine wells 100

Row | SMILES | activation [1] | activation
1 | COc1ccccc1CN1CC[C@H]2[C@H](CO)Nc3ccc(C#Cc4ccccc4)cc3[C@H]21 | 0% (inactive) | –
2 | CCN(CC)c1ccc(/C=C(/C#N)C(=O)NCc2ccccc2)o1 | 12.4% (inactive) | –
3 | Cc1cc(C(=O)Nc2ccc(Cl)c(S(=O)(=O)N3CCOCC3)c2)c2ccccc2n1 | -0.053% (inactive) | –
4 | COc1ccc(OCCN2CCC(C(=O)NC(c3ccc(C)cc3)c3ccccn3)CC2)cc1 (stereo not drawn) | 0.883% (inactive) | –
5 | Cn1cc(C(=O)N/N=C/C(Br)=C/c2ccccc2)ccc1=O | -0.07% (inactive) | –
6 | CCOC(=O)c1nn(-c2ccc3ccccc3c2)cc1O | 0.359% (inactive) | –
7 | COc1ccc(COc2ccccc2C(=O)NCc2ccccc2)cc1F | -0.07% (inactive) | –
8 | CC1CC(C)CN(C(=O)C(C)N2CCN(S(=O)(=O)c3ccccc3F)CC2)C1 (stereo not drawn) | 0.412% (inactive) | –
9 | Cc1ccc(NC(=O)c2cc(N3C(=O)C=CC3=O)ccc2N2CCOCC2)cc1Cl | -0.024% (inactive) | –
10 | NNC(=O)c1sc(-c2ccccc2)cc1N | 0.249% (inactive) | –
11 | COc1cc(/C=N/Nc2nc(N3CCCC3)nc(N3CCCC3)n2)ccc1OCc1ccccc1F | 0.149% (inactive) | –
12 | CCn1nc(C)cc1-c1nnc(Sc2ncc([N+](=O)[O-])s2)n1C | -0.032% (inactive) | –
13 | COc1ccccc1N1CCN(C(=O)CN2C(=O)c3cccc4cccc(c34)C2=O)CC1 | 0.077% (inactive) | –
14 | COc1ccc(Cl)cc1C(=O)Nc1ccccc1N1CCCCC1 | 1.48% (inactive) | –
15 | CCOc1ccc(C(=O)c2cc([N+](=O)[O-])ccc2N2CCOCC2)cc1 | 0.569% (inactive) | –
16 | O=c1c(Cl)c(Cl)cnn1Cc1nnc(-c2ccccc2Br)o1 | -0.053% (inactive) | –
17 | CSc1ccc(CN2C(=O)NC3(CCCCCCC3)C2=O)cc1 | 0.616% (inactive) | –
18 | O=C1N[C@H](Cc2ccccc2)COCc2cn(nn2)CC[C@@H]1Cc1ccccc1 | 0.033% (inactive) | –
19 | Cc1ccc(C)c(OCCC(=O)Nc2cc(S(=O)(=O)N3CCCCC3)ccc2C)c1 | -0.008% (inactive) | –
20 | CCOC(=O)Nc1ccc2nc(-c3cscn3)[nH]c2c1 | 0.097% (inactive) | –
21 | Cc1ccc(C)c(CSC2=NN3CCCC(=O)N=C3S2)c1 | -0.017% (inactive) | –
22 | COc1cccc(CNC(=O)C(Cc2ccccc2)n2cccc2)c1 (stereo not drawn) | 0.002% (inactive) | –

Row | SMILES | activation [1] | activation
23 | O=C(NNC(=O)c1ccccc1Cl)c1ccccc1Cl | -0.034% (inactive) | –
24 | CCc1ccc(NS(=O)(=O)c2ccc3[nH]cc(C(=O)N4CCc5ccccc54)c(=O)c3c2)cc1 | -0.01% (inactive) | –
25 | CC(=O)Nc1ccc(N2Cc3ccccc3C2)cc1 | -0.053% (inactive) | –
26 | CC(Sc1nnc(Cc2ccccc2)o1)C(=O)Nc1ccccc1[N+](=O)[O-] (stereo not drawn) | -0.032% (inactive) | –
27 | Nc1nc(Nc2ccc(Cl)cc2)c(NC=O)c(=O)[nH]1 | -0.075% (inactive) | –
28 | CC(C)(C)N(Cc1ccccc1)C(=O)COC(=O)c1ccc(N2CCCC2=O)cc1 | 0.165% (inactive) | –
29 | CCN1CCc2c(sc(NC(=O)c3ccc4ccccc4c3)c2C(N)=O)C1 | -0.008% (inactive) | –
30 | COc1ccc(Nc2nc(N)c(C(=O)c3ccc(F)cc3)s2)cc1 | 0.551% (inactive) | –
31 | COc1ccc2c3c(n(C)c2c1)[C@@H](CO)N(Cc1ccccc1OC)CC31CCN(C)CC1 | 0.213% (inactive) | –
32 | CCOCCCn1c(=NC(C)=O)c(C#N)cc2c(=O)n3cccc(C)c3nc21 | 0.035% (inactive) | –
33 | COc1ccc(C2C(=O)c3ccccc3C2=Nc2ccc(Br)cc2)cc1 (stereo not drawn) | -0.066% (inactive) | –
34 | Cn1c(=O)c(C#N)c(-c2ccc(F)cc2)c2cc(C(=O)c3cc(Cl)cc(Cl)c3O)cnc21 | -0.044% (inactive) | –
35 | C/C=C/c1ccc(C2[C@H]3CNC[C@@H]2N3Cc2cc(-c3ccccc3)on2)cc1 (stereo partly drawn) | -0.031% (inactive) | –
36 | COC(=O)c1c(NC(=O)c2ccccc2)sc2c1CC(C)(C)NC2(C)C | 0.021% (inactive) | –
37 | Cc1ccc(S(=O)(=O)N(C)C[C@H]2OCCCC[C@@H](C)Oc3ccc(NC(=O)Nc4c(C)noc4C)cc3C(=O)N([C@H](C)CO)C[C@@H]2C)cc1 | -0.011% (inactive) | –
38 | CC(C)(C)[S@@](=O)N1Cc2cc(C(=O)N3CCCCC3)nc(-c3cccc(-c4cccc(C#N)c4)c3)c2[C@H]1CCO | -0.031% (inactive) | –
39 | O=C(CSc1nc2ccccc2[nH]1)N/N=C/C=C/c1ccccc1[N+](=O)[O-] | 0.165% (inactive) | –
40 | O=C(O)CSc1ncccn1 | -0.015% (inactive) | –
41 | O=C(C[C@H]1CC[C@H]2[C@@H](COC[C@@H](O)CN2C(=O)Nc2ccccc2)O1)NCCc1ccncc1 | 0.207% (inactive) | –
42 | COc1ccccc1NC(=O)N[C@H]1C=C[C@@H](CC(=O)N[C@@H](C)c2ccccc2)O[C@@H]1CO | -0.011% (inactive) | –
43 | CCc1nc(C)cn1S(=O)(=O)c1ccc([N+](=O)[O-])cc1 | -0.053% (inactive) | –
44 | Cc1cccc(NCc2ccc(O)c3ncccc23)c1C | 0.288% (inactive) | –

Row | SMILES | activation [1] | activation
45 | CCCCOc1nc2ccccc2nc1NS(=O)(=O)c1ccc(F)cc1 | 0.851% (inactive) | –
46 | CCc1ccc(CCC(=O)Nc2ncc(Cc3ccccc3Cl)s2)o1 | 0.223% (inactive) | –
47 | Cc1ccc(OCCN2CCN(CC(O)Cn3c4ccccc4c4ccccc43)CC2)cc1 (stereo not drawn) | 5.68% (inactive) | –
48 | Cc1cc(C(=O)NCc2cc(F)cc3c2OCOC3)nn1C | -0.037% (inactive) | –
49 | C[C@@H]1CN(C)C(=O)Cc2cc(N(C)C)ccc2O[C@@H]1CN(C)S(C)(=O)=O | 0.115% (inactive) | –
50 | COc1ccccc1-c1cc(C(=O)N2CCCc3ccccc32)no1 | 0.179% (inactive) | –
51 | O=C(Nc1ccc(F)cc1)N1CC(=O)N2[C@H](CO)[C@H](c3ccc(C#Cc4ccc(F)cc4)cc3)[C@@H]2C1 | -0.031% (inactive) | –
52 | CCOc1cccc(/C=N/NC(=S)Nc2cc(S(=O)(=O)N3CCOCC3)ccc2N2CCOCC2)c1O | 6.09% (inactive) | –
53 | C[C@H](NC(=O)C[C@H]1CC[C@@H](NC(=O)Cc2ccccn2)[C@@H](CO)O1)c1ccccc1 | 0.043% (inactive) | –
54 | O=c1[nH]nc(SCCS(=O)(=O)c2ccc(F)cc2)n1-c1ccccc1C(F)(F)F | -0.024% (inactive) | –
55 | COCCCn1c(C)cc(C(=O)COC(=O)CCc2nc3ccccc3c(=O)[nH]2)c1C | 0.39% (inactive) | –
56 | Cc1ccc(S(=O)(=O)N2CCOCC2)cc1C(=O)OCC(=O)NC1CCS(=O)(=O)C1 (stereo not drawn) | -0.034% (inactive) | –
57 | Cc1ccc(-c2nc(CS(=O)CC(=O)NCCCN3CC(C)CC(C)C3)c(C)o2)cc1 (stereo not drawn) | 0.4% (inactive) | –
58 | C[C@H]1CN([C@@H](C)CO)C(=O)c2cc(NC(=O)CCCCCC(=O)Nc3ccccc3N)ccc2O[C@H]1CN(C)C(=O)Nc1ccccc1 | 0.04% (inactive) | –
59 | CCOC(=O)[C@]12CCC=C1N(Cc1ccccc1)C(=O)[C@H](CC(=O)N1CCSCC1)C2 | -0.008% (inactive) | –
60 | Cc1ccc(Nc2nc(N)nc(COC(=O)C3=COCCO3)n2)cc1 | 0.004% (inactive) | –
61 | CCc1ccc(N2CC(C(=O)Nc3cc(C)on3)CC2=O)cc1 (stereo not drawn) | -0.034% (inactive) | –
62 | O=C(COC(=O)c1ccc(NS(=O)(=O)c2cccs2)cc1O)NC1CCCCC1 | 0.098% (inactive) | –
63 | COP(=S)(OC)Oc1ccc(Sc2ccc(OP(=S)(OC)OC)cc2)cc1 | – | 0.028% (inactive)
64 | CNc1ccc([N+](=O)[O-])cc1C(=O)O | 0.697% (inactive) | –
65 | CCc1ccc(CN(C)C(=O)c2cc(S(=O)(=O)N3CCOCC3)ccc2N2CCCC2)cc1 | -0.007% (inactive) | –
66 | O=C(NNC(=O)c1cc2ccccc2o1)c1ccc(Cl)cc1 | 0.006% (inactive) | –

Row | SMILES | activation [1] | activation
67 | C=CCn1c(=S)[nH]c2scc(-c3ccco3)c2c1=O | 0.072% (inactive) | –
68 | COc1ccc(-n2ncc(Cl)c(Cl)c2=O)cc1 | -0.032% (inactive) | –
69 | O=C(N/N=C\c1c(O)ccc2ccccc12)c1ccc(S(=O)(=O)N2CCCCC2)cc1 | 12.4% (inactive) | –
70 | Cc1nn(-c2ccccc2)c2ncc(C(=O)c3cc(Cl)ccc3O)cc12 | 0.1% (inactive) | –
71 | CCCn1c(SCC(=O)NCc2ccc(C)cc2)n[nH]c1=O | -0.121% (inactive) | –
72 | COC1=CC(=O)c2nc(Cl)ccc2C1=O | 5.06% (inactive) | –
73 | Cc1oc2ccc(NS(=O)(=O)c3cccc4cccnc34)cc2c1C(=O)OC(C)C | 0.423% (inactive) | –
74 | N/C(=N\c1nc(CSc2nc3ccccc3s2)cc(=O)[nH]1)Nc1ccc(F)cc1 | 8.8% (inactive) | –
75 | CCOC(=O)c1cnc(-c2ccc(C(F)(F)F)cn2)[nH]c1=O | -0.017% (inactive) | –
76 | O=C(Nc1c(F)cccc1F)C(c1ccccc1)c1ccccc1 | 0.013% (inactive) | –
77 | COc1cc(/C=C/C(=O)c2ccc3c(c2)OCCO3)cc(Br)c1OCC(=O)N(C)C | -0.06% (inactive) | –
78 | Cc1cccc(-c2ccc([C@H]3[C@H](CO)N4CCCCN(C(=O)NC(C)C)C[C@@H]34)cc2)c1 | 0.105% (inactive) | –
79 | CCc1ccc(C(=O)NNc2ccc(S(N)(=O)=O)cc2)cc1 | -0.007% (inactive) | –
80 | Cc1ccc(N(C)C(=O)C2CCN(S(=O)(=O)c3ccc4c(c3)oc(=O)n4C)CC2)cc1 | 0.016% (inactive) | –
81 | CC(=Nc1ccc(Cl)cc1N)c1c(O)cc(C)oc1=O | -0.044% (inactive) | –
82 | C[C@@H]1CN([C@H](C)CO)C(=O)c2cc(NS(=O)(=O)c3ccc(F)cc3)ccc2O[C@@H](C)CCCCO[C@@H]1CN(C)Cc1ccc2c(c1)OCO2 | 9.16% (inactive) | –
83 | O=C(CCN1CCCCC1)NCC[C@@H]1CC[C@H](NC(=O)C2CCCCC2)[C@H](CO)O1 | 0.052% (inactive) | –
84 | Cc1onc(-c2c(Cl)cccc2Cl)c1-c1nc2cc(Cl)ccc2c(=O)o1 | -0.032% (inactive) | –
85 | CCC(=O)OCCNc1cc(Sc2nc3ccccc3[nH]2)c2nonc2c1[N+](=O)[O-] | -0.037% (inactive) | –
86 | COc1cccc(CNC(=O)c2cc(S(=O)(=O)N3CCOCC3)cn2C)c1 | 0.576% (inactive) | –
87 | COc1cccc(CNC(=O)c2cc(S(=O)(=O)N3CCCC3)cn2C)c1 | 0.095% (inactive) | –
88 | CCCNNC(=O)C(O)(c1ccccc1)c1ccccc1 | -0.099% (inactive) | –

— PubChem BioAssay AID743394 (Broad Institute, 2014)
